Experimental data: patent US20260256792A1, “TREATMENT OF CHRONIC SPONTANEOUS URTICARIA BY ADMINISTERING (R)-2-[3-[4-AMINO-3-(2-FLUORO-4-PHENOXY-PHENYL)PYRAZOLO[3,4-D]PYRIMIDIN-1-YL]PIPERIDINE-1-CARBONYL]-4-METHYL-4-[4-(OXETAN-3-YL)PIPERAZIN-1-YL]PENT-2-ENENITRILE” (priority 2023, published 2026)

Test system: moderate-to-severe chronic spontaneous urticaria (CSU)
Assay: Phase 2 CSU study: urticaria activity score over 7 days (UAS7)
Type: in vivo, human
Settings: Omalizumab-Naïve
Excerpt: The study comprises a 12 week, randomized, double-blind, placebo-controlled, multi-center, dose-ranging efficacy and safety phase, followed by a 40 week open label extension (OLE) phase (see FIG. 1). The study consists of three phases and an optional OLE phase. […] Clinically, CSU is characterized by the spontaneous and recurrent appearance of pruritic hives. The proposed primary endpoints were the UAS7 at Week 12 in EU and EU reference countries and the ISS7 in the US. Regardless of where a participant was from, all assessments were the same. The UAS7 score is a composite score containing both the HSS7 and the ISS7. This allowed a global assessment of the two key components of urticaria: hives and itch. […] The UAS is a validated PRO measure. […] The daily UAS scores range from 0 to 6 point/day. […] Patients were to complete the UAS using the e-diary. […] The following secondary endpoints were to be analyzed using the same approach as for the primary endpoint: • Change from baseline in UAS7 at Week 4 • Change from baseline in UAS7 at Week 12 (for US and US reference countries) • Change from baseline in ISS7 at Week 12 (except US and US reference countries) • Change from baseline in HSS7 at Week 12 The following responder secondary endpoints were to be analyzed using the Cochran-Mantel-Haenszel test adjusted by region: • Proportion of participants with UAS7<6 at Week 12 • Proportion of participants with UAS7=0 at Week 12 Participants who received selected prohibited medications and/or rescue medications were to be considered as non-responders for time points after the medication usage. For other participants, all available data including those collected during the off-treatment period were to be used to determine the responder/non-responder status. Missing data were to be considered as non-responders.

[1] = Age group (years) ≥44 (Median), 400 mg QPM
[2] = Age group (years) ≥44 (Median), 400 mg TID
[3] = Age group (years) ≥65, 400 mg BID
[4] = Age group (years) ≥65, 400 mg QPM
[5] = Age group (years) ≥65, 400 mg TID
[6] = Baseline BHRA BHRA+, 400 mg BID
[7] = Baseline BHRA BHRA+, 400 mg QPM
[8] = Baseline BHRA BHRA+, 400 mg TID
[9] = Baseline BHRA BHRA−, 400 mg BID
[10] = Baseline BHRA BHRA−, 400 mg QPM
[11] = Baseline BHRA BHRA−, 400 mg TID
[12] = Baseline Eosinophils (10^9/L) <0.150, 400 mg BID
[13] = Baseline Eosinophils (10^9/L) <0.150, 400 mg TID
[14] = Baseline Eosinophils (10^9/L) <0.165 (Median), 400 mg BID
[15] = Baseline Eosinophils (10^9/L) <0.165 (Median), 400 mg QPM
[16] = Baseline Eosinophils (10^9/L) <0.165 (Median), 400 mg TID
[17] = Baseline Eosinophils (10^9/L) <0.3, 400 mg BID
[18] = Baseline Eosinophils (10^9/L) <0.3, 400 mg QPM
[19] = Baseline Eosinophils (10^9/L) <0.3, 400 mg TID
[20] = Baseline Eosinophils (10^9/L) ≥0.150, 400 mg BID
[21] = Baseline Eosinophils (10^9/L) ≥0.150, 400 mg TID
[22] = Baseline Eosinophils (10^9/L) ≥0.165 (Median), 400 mg BID
[23] = Baseline Eosinophils (10^9/L) ≥0.165 (Median), 400 mg QPM
[24] = Baseline Eosinophils (10^9/L) ≥0.165 (Median), 400 mg TID

CC(C)(C=C(C#N)C(=O)N1CCC[C@@H](n2nc(-c3ccc(Oc4ccccc4)cc3F)c3c(N)ncnc32)C1)N1CCN(C2COC2)CC1 [rilzabrutinib, (R)-2-[3-[4-amino-3-(2-fluoro-4-phenoxy-phenyl)pyrazolo[3,4-d]pyrimidin-1-yl]piperidine-1-carbonyl]-4-methyl-4-[4-(oxetan-3-yl)piperazin-1-yl]pent-2-enenitrile]
Change from Baseline in UAS7 at Week 12: LS Mean Diff vs. placebo (95% CI) [1]: 2.72 (−5.76, 11.20) | Change from Baseline in UAS7 at Week 12: Mean (SD) [1]: −10.71 (7.99) | Change from Baseline in UAS7 at Week 12: LS Mean (SE) [2]: −17.54 (2.39) | Change from Baseline in UAS7 at Week 12: LS Mean Diff vs. placebo (95% CI) [2]: −5.98 (−13.92, 1.95) | Change from Baseline in UAS7 at Week 12: Mean (SD) [2]: −19.17 (11.98) | Change from Baseline in UAS7 at Week 12: LS Mean (SE) [3]: −21.85 (10.98) | Change from Baseline in UAS7 at Week 12: Mean (SD) [3]: −29.00 (NC)^ | Change from Baseline in UAS7 at Week 12: LS Mean (SE) [4]: −1.73 (17.36) | Change from Baseline in UAS7 at Week 12: LS Mean Diff vs. placebo (95% CI) [4]: −3.19 (−44.28, 37.89) | Change from Baseline in UAS7 at Week 12: Mean (SD) [4]: −16.33 (NC) ^ | Change from Baseline in UAS7 at Week 12: LS Mean (SE) [5]: −23.81 (7.07) | Change from Baseline in UAS7 at Week 12: Mean (SD) [5]: −24.13 (14.17) | Change from Baseline in UAS7 at Week 12: LS Mean (SE) [6]: −19.58 (5.46) | Change from Baseline in UAS7 at Week 12: LS Mean Diff vs. placebo (95% CI) [6]: −10.09 (−27.02, 6.84) | Change from Baseline in UAS7 at Week 12: Mean (SD) [6]: −19.50 (10.03) | Change from Baseline in UAS7 at Week 12: LS Mean (SE) [7]: −17.03 (6.45) | Change from Baseline in UAS7 at Week 12: LS Mean Diff vs. placebo (95% CI) [7]: −7.53 (−24.53, 9.46) | Change from Baseline in UAS7 at Week 12: Mean (SD) [7]: −19.94 (5.28) | Change from Baseline in UAS7 at Week 12: LS Mean (SE) [8]: −22.12 (5.72) | Change from Baseline in UAS7 at Week 12: LS Mean Diff vs. placebo (95% CI) [8]: −12.63 (−29.25, 4.00) | Change from Baseline in UAS7 at Week 12: Mean (SD) [8]: −22.13 (16.40) | Change from Baseline in UAS7 at Week 12: LS Mean (SE) [9]: −12.39 (2.21) | Change from Baseline in UAS7 at Week 12: LS Mean Diff vs. placebo (95% CI) [9]: −2.42 (−8.35, 3.52) | Change from Baseline in UAS7 at Week 12: LS Mean (SE) [10]: −8.95 (2.08) | Change from Baseline in UAS7 at Week 12: LS Mean Diff vs. placebo (95% CI) [10]: 1.02 (−4.73, 6.78) | Change from Baseline in UAS7 at Week 12: Mean (SD) [10]: −9.96 (9.08) | Change from Baseline in UAS7 at Week 12: LS Mean (SE) [11]: −16.51 (2.11) | Change from Baseline in UAS7 at Week 12: LS Mean Diff vs. placebo (95% CI) [11]: −6.53 (−12.28, −0.79) | Change from Baseline in UAS7 at Week 12: Mean (SD) [11]: −18.52 (10.75) | Change from Baseline in UAS7 at Week 12: LS Mean Diff vs. placebo (95% CI) (Baseline BMI (kg/m^2) ≥30, 400 mg BID): −1.65 (−13.49, 10.19) | Change from Baseline in UAS7 at Week 12: LS Mean Diff vs. placebo (95% CI) (Baseline BMI (kg/m^2) ≥30, 400 mg QPM): −0.43 (−11.59, 10.72) | Change from Baseline in UAS7 at Week 12: LS Mean Diff vs. placebo (95% CI) (Baseline BMI (kg/m^2) ≥30, 400 mg TID): −7.58 (−20.66, 5.50) | Change from Baseline in UAS7 at Week 12: LS Mean (SE) [12]: −13.60 (3.19) | Change from Baseline in UAS7 at Week 12: LS Mean Diff vs. placebo (95% CI) [12]: −0.54 (−8.95, 7.87) | Change from Baseline in UAS7 at Week 12: LS Mean (SE) [13]: −20.09 (3.11) | Change from Baseline in UAS7 at Week 12: LS Mean Diff vs. placebo (95% CI) [13]: −7.04 (−15.34, 1.27) | Change from Baseline in UAS7 at Week 12: LS Mean (SE) [14]: −14.30 (2.83) | Change from Baseline in UAS7 at Week 12: LS Mean Diff vs. placebo (95% CI) [14]: −1.83 (−9.50, 5.84) | Change from Baseline in UAS7 at Week 12: Mean (SD) [14]: −11.24 (8.98) | Change from Baseline in UAS7 at Week 12: LS Mean (SE) [15]: −7.71 (2.71) | Change from Baseline in UAS7 at Week 12: LS Mean Diff vs. placebo (95% CI) [15]: 4.76 (−2.75, 12.26) | Change from Baseline in UAS7 at Week 12: Mean (SD) [15]: 9.46 (8.63) | Change from Baseline in UAS7 at Week 12: LS Mean (SE) [16]: −19.82 (2.96) | Change from Baseline in UAS7 at Week 12: LS Mean Diff vs. placebo (95% CI) [16]: −7.36 (−15.23, 0.52) | Change from Baseline in UAS7 at Week 12: Mean (SD) [16]: −21.57 (13.01) | Change from Baseline in UAS7 at Week 12: LS Mean (SE) [17]: −15.05 (2.31) | Change from Baseline in UAS7 at Week 12: LS Mean Diff vs. placebo (95% CI) [17]: −4.89 (−11.04, 1.26) | Change from Baseline in UAS7 at Week 12: Mean (SD) [17]: −14.90 (12.30) | Change from Baseline in UAS7 at Week 12: LS Mean (SE) [18]: −9.19 (2.15) | Change from Baseline in UAS7 at Week 12: LS Mean Diff vs. placebo (95% CI) [18]: 0.97 (−5.00, 6.93) | Change from Baseline in UAS7 at Week 12: Mean (SD) [18]: −10.75 (8.91) | Change from Baseline in UAS7 at Week 12: LS Mean (SE) [19]: −18.29 (2.31) | Change from Baseline in UAS7 at Week 12: LS Mean Diff vs. placebo (95% CI) [19]: −8.14 (−14.29, −1.98) | Change from Baseline in UAS7 at Week 12: Mean (SD) [19]: −19.99 (12.00) | Change from Baseline in UAS7 at Week 12: LS Mean (SE) [20]: −14.57 (2.57) | Change from Baseline in UAS7 at Week 12: LS Mean Diff vs. placebo (95% CI) [20]: −7.68 (−15.25, −0.11) | Change from Baseline in UAS7 at Week 12: LS Mean (SE) [21]: −14.80 (2.58) | Change from Baseline in UAS7 at Week 12: LS Mean Diff vs. placebo (95% CI) [21]: −7.92 (−15.27, −0.56) | Change from Baseline in UAS7 at Week 12: LS Mean (SE) [22]: −14.13 (2.87) | Change from Baseline in UAS7 at Week 12: LS Mean Diff vs. placebo (95% CI) [22]: −7.01 (−15.24, 1.22) | Change from Baseline in UAS7 at Week 12: Mean (SD) [22]: −17.73 (14.16) | Change from Baseline in UAS7 at Week 12: LS Mean (SE) [23]: −10.83 (2.83) | Change from Baseline in UAS7 at Week 12: LS Mean Diff vs. placebo (95% CI) [23]: −3.71 (−11.80, 4.38) | Change from Baseline in UAS7 at Week 12: Mean (SD) [23]: −11.84 (10.30) | Change from Baseline in UAS7 at Week 12: LS Mean (SE) [24]: −14.63 (2.71) | Change from Baseline in UAS7 at Week 12: LS Mean Diff vs. placebo (95% CI) [24]: −7.52 (−15.32, 0.28)
